The values that follow are results of earlier work, collected in patent publication US20150057617A1, “ANTI-MICROBIAL DRESSING, AN ANTI-MICROBIAL COMPOSITION AND USE THEREOF” (EMODIAL S.r.l., priority 2012, published 2015).

The test system of the series is fibroblasts.

Regarding `[H]/N=C(\N/C(=N/[H])NCCCCCCNC(=N)NC(=N)Nc1ccc(Cl)cc1)Nc1ccc(Cl)cc1` [chlorhexidine], the cytotoxicity for fibroblasts entry is “cytotoxic for fibroblasts”.
